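Where inhibition never reached the appropriate level, the endpoint shown equals the highest concentration tested. Otherwise, values were interpolated linearly from a five-concentration, 48-hour dose response in 96-well plates. At the GI50, growth is halved.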 Activity calls are given as the source filed them. Rule as the data show it: active = GI50 up to about 1.1 µM and inactive = higher.
What was measured:
Assay in all cases: NCI anticancer screen, dose series, 48 h
[1] = system: OVCAR-5
[2] = system: OVCAR-4
[3] = system: SR
[4] = system: NCI-H460
[5] = system: UO-31
[6] = system: SNB-19
[7] = system: SK-MEL-28
[8] = system: HCT-116
[9] = system: A549
[10] = system: SK-MEL-2
[11] = system: NCI-H522
[12] = system: IGROV-1
[13] = system: EKVX
[14] = system: SNB-75
[15] = system: RPMI-8226
[16] = system: TK-10

Structure (SMILES) | GI50 [1] | GI50 [2] | GI50 [3] | GI50 [4] | GI50 [5] | GI50 [6] | GI50 [7] | GI50 [8] | GI50 [9] | GI50 [10] | GI50 [11] | GI50 [12] | GI50 [13] | GI50 [14] | GI50 [15] | GI50 [16]
C=C1C(=O)OC2CCCCC3OC3C12 (configuration not stated) | 18.2 µM (inactive) | 14.2 µM (inactive) | 23 µM (inactive) | 14.8 µM (inactive) | 15.4 µM (inactive) | 20 µM (inactive) | 10.9 µM (inactive) | 2.99 µM (inactive) | 20.9 µM (inactive) | 12 µM (inactive) | 1.87 µM (inactive) | 17.1 µM (inactive) | 16.9 µM (inactive) | 20.4 µM (inactive) | 5.55 µM (inactive) | 13.8 µM (inactive)
COc1ccc(C(c2c(O)c3ccccc3n(C)c2=O)c2c(O)c3ccccc3n(C)c2=O)cc1 | 32.3 µM (inactive) | 62.8 µM (inactive) | 51.4 µM (inactive) | > 100 µM (inactive) | 36.5 µM (inactive) | 39.5 µM (inactive) | 39.2 µM (inactive) | 36 µM (inactive) | 37.5 µM (inactive) | > 100 µM (inactive) | 9.77 µM (inactive) | 71.8 µM (inactive) | 34.8 µM (inactive) | 16.1 µM (inactive) | 46 µM (inactive) | 38.2 µM (inactive)
CC(C)(C)c1cc(C#N)c2c(c1)C(=O)OC2(c1ccccc1)c1ccccc1C#N (configuration not stated) | > 100 µM (inactive) | > 100 µM (inactive) | 20.8 µM (inactive) | > 100 µM (inactive) | 32.1 µM (inactive) | > 100 µM (inactive) | > 100 µM (inactive) | > 100 µM (inactive) | > 100 µM (inactive) | > 100 µM (inactive) | 12.3 µM (inactive) | > 100 µM (inactive) | > 100 µM (inactive) | 42.8 µM (inactive) | – | > 100 µM (inactive)
CCOC(=O)c1ccc(N[C@@H]2c3cc4c(cc3C(C3=CC(=O)C(=O)C(OC)=C3)[C@H]3C(=O)OCC32)OCO4)cc1 (some centres not stated) | 4.88 µM (inactive) | 24.2 µM (inactive) | 0.148 µM (active) | 0.173 µM (active) | 2.52 µM (inactive) | 2.49 µM (inactive) | 7.6 µM (inactive) | 2.86 µM (inactive) | 0.548 µM (active) | 2.82 µM (inactive) | 4.61 µM (inactive) | 5.78 µM (inactive) | 3.73 µM (inactive) | 1.58 µM (inactive) | 1.06 µM (active) | 9.84 µM (inactive)
O=C(CSC(=S)N1CCCCC1)Nc1nc2c(s1)CCCC2 | > 100 µM (inactive) | 91.8 µM (inactive) | 6.4 µM (inactive) | 15.1 µM (inactive) | 33.7 µM (inactive) | 71.1 µM (inactive) | 64.7 µM (inactive) | 12.1 µM (inactive) | 43.6 µM (inactive) | > 100 µM (inactive) | 29.5 µM (inactive) | > 100 µM (inactive) | – | > 100 µM (inactive) | 33.5 µM (inactive) | 16.4 µM (inactive)
CCCCc1c2c(nc3c1CC/C(=C\c1ccc([N+](=O)[O-])cc1)C3=O)CCCC2 | – | – | 2.86 µM (inactive) | 1.57 µM (inactive) | 2.13 µM (inactive) | 1.87 µM (inactive) | 1.69 µM (inactive) | 1.8 µM (inactive) | 4.41 µM (inactive) | – | 1.51 µM (inactive) | 1.8 µM (inactive) | 11.4 µM (inactive) | 8.65 µM (inactive) | 1.7 µM (inactive) | 1.66 µM (inactive)
COc1cc(Oc2c(O)c(C)c(OC)c(C(C)=O)c2O)c(C(C)=O)c(O)c1C | 98.2 µM (inactive) | 45.2 µM (inactive) | > 100 µM (inactive) | 46.9 µM (inactive) | 43.1 µM (inactive) | 63 µM (inactive) | 50.6 µM (inactive) | 52.8 µM (inactive) | 45.8 µM (inactive) | – | 12.9 µM (inactive) | 67.3 µM (inactive) | – | > 100 µM (inactive) | – | 49.4 µM (inactive)
C/C(=C\CBr)CCC(Br)C(C)(C)Cl (configuration not stated) | > 100 µM (inactive) | > 100 µM (inactive) | > 100 µM (inactive) | > 100 µM (inactive) | > 100 µM (inactive) | – | > 100 µM (inactive) | > 100 µM (inactive) | > 100 µM (inactive) | > 100 µM (inactive) | > 100 µM (inactive) | > 100 µM (inactive) | – | > 100 µM (inactive) | > 100 µM (inactive) | > 100 µM (inactive)
CCCCn1c(-c2ccccc2)cs/c1=N\NC(=O)Cn1c(C)nc2ccccc21 | > 100 µM (inactive) | 6.12 µM (inactive) | 11.5 µM (inactive) | 76.7 µM (inactive) | 55.6 µM (inactive) | > 100 µM (inactive) | – | 97.3 µM (inactive) | 81.1 µM (inactive) | > 100 µM (inactive) | 30.2 µM (inactive) | > 100 µM (inactive) | 47.1 µM (inactive) | 60.1 µM (inactive) | 14.7 µM (inactive) | > 100 µM (inactive)
COc1ccc(C(=O)C(CO)Oc2ccccc2OC)cc1OC (configuration not stated) | > 100 µM (inactive) | > 100 µM (inactive) | – | > 100 µM (inactive) | > 100 µM (inactive) | > 100 µM (inactive) | > 100 µM (inactive) | > 100 µM (inactive) | > 100 µM (inactive) | > 100 µM (inactive) | 91 µM (inactive) | > 100 µM (inactive) | > 100 µM (inactive) | > 100 µM (inactive) | > 100 µM (inactive) | > 100 µM (inactive)
COc1cc(OC(C)=O)cc2c(OC(C)=O)ccc(OC(C)=O)c12 | > 100 µM (inactive) | 73.6 µM (inactive) | > 100 µM (inactive) | > 100 µM (inactive) | > 100 µM (inactive) | > 100 µM (inactive) | > 100 µM (inactive) | > 100 µM (inactive) | > 100 µM (inactive) | > 100 µM (inactive) | > 100 µM (inactive) | > 100 µM (inactive) | > 100 µM (inactive) | – | > 100 µM (inactive) | > 100 µM (inactive)
CC(C)(C)OC(=O)NC1CCC[C@H]1O (some centres not stated) | > 100 µM (inactive) | > 100 µM (inactive) | > 100 µM (inactive) | > 100 µM (inactive) | > 100 µM (inactive) | > 100 µM (inactive) | > 100 µM (inactive) | > 100 µM (inactive) | > 100 µM (inactive) | > 100 µM (inactive) | > 100 µM (inactive) | – | > 100 µM (inactive) | 47.3 µM (inactive) | – | > 100 µM (inactive)
O=C(NC1CCCCC1)c1c(O)[nH]c(=S)[nH]c1=O | > 100 µM (inactive) | > 100 µM (inactive) | > 100 µM (inactive) | 57 µM (inactive) | 79.3 µM (inactive) | > 100 µM (inactive) | > 100 µM (inactive) | > 100 µM (inactive) | 52.4 µM (inactive) | > 100 µM (inactive) | > 100 µM (inactive) | > 100 µM (inactive) | – | > 100 µM (inactive) | > 100 µM (inactive) | > 100 µM (inactive)

Reference: ChEMBL document CHEMBL1201862, “PubChem BioAssay data set” (2004)
